In publication PMC2935281 (Acta Crystallographica Section D: Biological Crystallography, 2010):

What was measured:
[1] = target: T1, B. anthracis lumazine synthase (BaLS) (Bacillus anthracis, UniProt Q81MB5); test: biochemical; conditions: for Mechanism: pH 7
[2] = target: T1, B. anthracis lumazine synthase (BaLS); test: biochemical; assay type: binding; conditions: for Binding enthalpy ΔH / Free energy of binding ΔG / No. of sites n / TΔS: pH 7
[3] = target: LS from M. tuberculosis (MtLS); conditions: read-out: Dissociation constant Kd; cited from earlier work
[4] = target: C. albicans LS (CaLS); conditions: read-out: Dissociation constant Kd; cited from earlier work

T1 sequence (Q81MB5 whole entry, looked up): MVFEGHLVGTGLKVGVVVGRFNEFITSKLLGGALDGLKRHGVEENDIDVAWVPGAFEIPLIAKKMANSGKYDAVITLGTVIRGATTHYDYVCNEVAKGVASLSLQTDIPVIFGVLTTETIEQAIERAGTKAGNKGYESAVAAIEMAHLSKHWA

## O=c1[nH]c(Cl)c(CCCCCP(=O)(O)O)c(=O)[nH]1 [JC72, 5-(6-chloro-2,4-dioxo-1,2,3,4-tetrahydropyrimidine-5-yl)-n-pentyl 1-phosphonate]
[1]
  Ki: 430 nM
  increase of the Ki value in comparison to JC33: approximately 20 fold
  Mechanism: Partial
[1]; pH 7.0
  Kis: 9.5 ± 3.5 µM
  Ks: 8.5 ± 0.5 µM
  kcat: 0.01 ± 0.00017 s⁻¹
  k′cat: 0.28 ± 0.09 min⁻¹
[2]
  Kd: 3940 ± 10 nM
  Binding enthalpy ΔH: -5.29 ± 0.8 kcal/mol
  Free energy of binding ΔG: -7.49 ± 0.01 kcal/mol
  No. of sites n: 0.98 ± 0.12
  TΔS: 2.20 ± 0.79 kcal/mol

## O=c1[nH]c(Cl)c(CCCCOP(=O)(O)O)c(=O)[nH]1 [JC33, 4-(6-Chloro-2,4-dioxo-1,2,3,4-tetrahydropyrimidine-5-yl)-n-butyl 1-phosphate]
[1]
  Ki: 23 nM
  Mechanism: Competitive
[1]; pH 7.0
  Ks: 8.0 ± 0.5 µM
  kcat: 0.01 ± 0.00017 s⁻¹
[3]
  Kd: 720 ± 20 nM
[4]
  Kd: 150 ± 40 nM
[2]
  Kd: 1750 ± 40 nM
  Binding enthalpy ΔH: -7.50 ± 0.07 kcal/mol
  Free energy of binding ΔG: -7.98 ± 0.02 kcal/mol
  No. of sites n: 0.98 ± 0.04
  TΔS: 0.47 ± 0.07 kcal/mol
